Measurements as given in patent US20200230126A1, “TARGETED THERAPEUTICS” (TARVEDA THERAPEUTICS, INC., priority 2017, published 2020).

Assays:
[1] = Head-to-head in-use test, 0.9% Sodium Chloride dosing solution in IV bag and IV line with rocking; format: physicochemical; set-up: key to appearance: Conforms = clear and essentially free of visible particles; details: for appearance: 0.6 mg/mL in Sodium Chloride
Method: (§1) A head-to-head in-use test of the SDC-TRAP-0063 Sodium 0.9% Sodium Chloride and 5% Mannitol dosing solutions was conducted. This study was intended to directly compare the two based on the specific clinical use direction for each diluent. In this study, the respective IV bags, syringes and IV lines were subjected to a rocking motion during the hold periods to mimic a worst case scenario for agitation of the dosing solution.
The 0.9% Sodium Chloride dosing solution was tested in an IV bag and IV line and at 0.6 mg/mL of SDC-TRAP-0063 Sodium as used in the clinic during the product complaint, with a designed 4 hour hold period followed by a 2-hour simulated infusion using a peristaltic pump (Table 5).

[2] = Head-to-head in-use test, 5% Mannitol dosing solution in IV bag, syringe and IV line with rocking; format: physicochemical
Method: as §1
The 5% Mannitol dosing solution was tested in a syringe and IV line as designed for use in the clinic with the addition of continuous rocking to simulate a worst case for agitation of the samples (Table 6). This dosing solution was tested at the limits of intended concentrations of 3 mg/mL and 12 mg/mL of SDC-TRAP-0063 Sodium and with a 2 hour hold period in the IV bag, a 6 hour hold period in the syringe and IV line and a 2-hour simulated infusion to exceed the planned clinical timeframes.

## CCc1c2c(nc3ccc(OC(=O)N4CCC(CCn5ccc6cc(-n7c(O)nnc7-c7cc(C(C)C)c(O)cc7O)ccc65)CC4)cc13)-c1cc([C@@](O)(CC)C(=O)[O-])c(CO)c(=O)n1C2.[Na+] [SDC-TRAP-0063 Sodium, Sodium (S)-2-(2-((4-(2-(5-(3-(2,4-dihydroxy-5-isopropylphenyl)-5-hydroxy-4H-1,2,4-triazol-4-yl)-1H-indol-1-yl)ethyl)piperidine-1-carbonyl)oxy)-12-ethyl-8-(hydroxymethyl)-9-oxo-9,11-dihydroindolizino[1,2-b]quinolin-7-yl)-2-hydroxybutanoate]
[1]; 0.6 mg/mL in 0.9% Sodium Chloride, 2-hour simulated infusion, peristaltic pump
  termination of the simulated infusion after onset due to occlusion of the in-line filter: ≤ 1 h
[1]; 0.6 mg/mL in 0.9% Sodium Chloride, 4 hour hold period, rocking
  precipitation during the hold period: Precipitation was observed in both the IV bag and IV line
[1]; Bulk solution, at termination, collected after in line filter
  appearance: Conforms^1
[1]; Drip Chamber of the IV Administration set, less than 1 hour (infusion terminated)
  appearance: Hazy with fine floating
[1]; IV Administration set, 0 hours, collected after in line filter
  appearance: Conforms^1
[1]; IV bag, 0 hours
  appearance: Conforms^1
[1]; IV bag, 2 hours
  appearance: Slightly hazy solution
[1]; IV bag, 4 hours, collected after in line filter
  appearance: Conforms^1
[2]; 3 mg/mL and 12 mg/mL, all time points, continuous rocking
  precipitation: no precipitation was observed at any time point
[2]; 3 mg/mL, Bulk solution, 8 hours (6 + 2 infusion)
  Recovery of SDC-TRAP-0063 Sodium (Calculated vs. Initial concentration): 98.0%
[2]; 3 mg/mL, IV bag, 0 hours
  Recovery of SDC-TRAP-0063 Sodium (Calculated vs. Initial concentration): 100.0%
[2]; 3 mg/mL, IV bag, 2 hours
  Recovery of SDC-TRAP-0063 Sodium (Calculated vs. Initial concentration): 102.5%
[2]; 3 mg/mL, IV line (infusion end), 8 hours (6 + 2 infusion)
  Recovery of SDC-TRAP-0063 Sodium (Calculated vs. Initial concentration): 98.7%
[2]; 3 mg/mL, IV line (infusion start), 6 hours, low volume in syringe, complete sample not obtained
  Recovery of SDC-TRAP-0063 Sodium (Calculated vs. Initial concentration): 93.5%^1
[2]; 3 mg/mL, IV line, 0 hours
  Recovery of SDC-TRAP-0063 Sodium (Calculated vs. Initial concentration): 97.2%
[2]; 12 mg/mL, Bulk solution, 8 hours (6 + 2 infusion)
  Recovery of SDC-TRAP-0063 Sodium (Calculated vs. Initial concentration): 105.4%
[2]; 12 mg/mL, IV bag, 0 hours
  Recovery of SDC-TRAP-0063 Sodium (Calculated vs. Initial concentration): 100.0%
[2]; 12 mg/mL, IV bag, 2 hours
  Recovery of SDC-TRAP-0063 Sodium (Calculated vs. Initial concentration): 103.9%
[2]; 12 mg/mL, IV line (infusion end), 8 hours (6 + 2 infusion)
  Recovery of SDC-TRAP-0063 Sodium (Calculated vs. Initial concentration): 104.3%
[2]; 12 mg/mL, IV line (infusion start), 6 hours
  Recovery of SDC-TRAP-0063 Sodium (Calculated vs. Initial concentration): 101.6%
[2]; 12 mg/mL, IV line, 0 hours
  Recovery of SDC-TRAP-0063 Sodium (Calculated vs. Initial concentration): 103.6%
